In US5728684A, “Determination of prodrugs metabolizable by the liver and therapeutic use thereof” (priority 1994, dated 1998):
Like-named read-outs stand apart in the source and are kept apart here.

Columns and labels:
aldehyde oxidase = assay: Substrate specificity of the conversion of RPdR to RUdR; format: in vitro ADME, rat; settings: substrate 180 μM; 2 to 4 separate experiments; in nmol/mg/min
Method: Rat hepatic tissue was washed with ice-cold 1.15% KCl and blotted dry. The tissue was then homogenized with a tissue homogenizer, in a volume of 1.15% KCl that was 3 times the tissue weight, to form a 25% (w/v) homogenate. The homogenate was then centrifuged at 10,000 g for 10 minutes at 4° C. The resulting supernatant was filtered through Miracloth (similar to cheese cloth) then dialyzed overnight against 50 mM Tris-HCl buffer pH 7.5 and stored at -80° C. before use. Rat hepatocytes were obtained by a perfusion technique then the cells were extracted with 10 mM phosphate buffer, pH 7.5, containing 1M KCl and dialyzed for 4 hours against 50 mM Tris-HCl buffer pH 7.5.
For the standard assay condition, the reaction mixture contained 50 mM Tris-HCl, pH 7.5, 1 mM EDTA, 180 μM of IPdR (or its analogs) and approximately 0.01 mg protein of 10,000 g supernatant of tissue homogenate in a final volume of 500 μl and the incubation was at 37° C. for 10 minutes unless specified otherwise. 300 μl of reaction mixture was removed at the end of incubation and mixed with 630 μl acetonitrile then agitated. The precipitated protein were removed by centrifugation and the supernatant was lyophilized to dryness. The samples were reconstituted to the original aliquot volume with the HPLC mobile phase buffer and analyzed on a Alltech RP-18 column. IPdR, IUdR and IU were detected at a UV absorption wavelength of 230 nm, and IPdR was also detected at a UV absorption wavelength of 335 nm. The mobile phase was 10% acetonitrile/90%mM ammonium acetate, pH 6.8 and the flow rate was 1 ml/minute. Standard curves of IPdR and IUdR were established from the integration value of known concentrations.
Several 2-pyrimidinone deoxyribose analogs were examined for the conversion to their deoxyuridine counterparts. […] Nevertheless the relative Vmax for IPdR in the reaction at pH 7.5 and pH 9.5 is the same. […] The synthetic substrates for aldehyde oxidase appear to be better than its natural substrates, N^1 -methylnicotinamide and acetaldehyde, as judged by the potency of inhibition of N^1 -methylnicotinamide and acetaldehyde to the IPdR oxidation reaction (Table IV). The rate of reactivity of the liver enzyme with different IPdR analogs follows the order EPdR, IP, IPdR, 5-bromo-2-pyrimidinone deoxyribose (BPdR) and 5-methyl-2-pyrimidinone deoxyribose (MPdR) or 5-ethyl-2-pyrimidinone deoxyribose (EtPdR) (Table V). Electronegative substituents in the 5-position seemed to increase the substrate activity in this oxidation reaction.
Substrate specificity of the conversion of […]

Xanthine oxidase [1] = assay: Conversion of IPdR to IUdR by xanthine oxidase; format: biochemical; settings: isolated from cow milk
Source text: (§1) In order to determine which enzyme is responsible for the catalysts of this IPdR oxidation, a series of known oxido-reductases which have similar capability to oxidize a carbon atom with an adjacent amino group into a carbonyl functionality were explored for their ability to catalyze IPdR oxidation. […] A mixed function oxidase system prepared from the microsome of rat liver a broad spectrum of substrates and is NADPH dependent. […] Alcohol dehydrogenase (which can be obtained from Sigma) and alcohol oxidase (which can be obtained from Sigma) both reside in the soluble fraction of liver cell extracts, but the conversion of IPdR to […] was not detected with purified preparation of either enzyme under the same conditions that they converted their natural substrates effectively. […]

Alcohol dehydrogenase = assay: IPdR conversion by alcohol dehydrogenase; format: biochemical; settings: purified preparation
Source text: as §1

Sarcosine oxidase = assay: IPdR oxidation by sarcosine oxidase; format: biochemical
Source text: as §1

rat liver homogenate = assay: HPLC time course of conversion of IPdR by rat liver homogenate; format: in vitro ADME
Method: FIGS. 1A-1C depict HPLC profiles of the conversion of IPdR to IUdR by liver homogenate. IPdR was incubated with rat liver homogenate. For control reactions, a portion of the supernatant was boiled for 5 minutes to inactivate all enzymes before use. The assay condition was as described hereinafter except 60 μl of the 100,000 g×60 minute supernatant (equivalent to approximately 0.5 mg protein/ml) was used in a reaction volume of 1500 μl . […]
For the standard assay condition, the reaction mixture contained 50 mM Tris-HCl, pH 7.5, 1 mM EDTA, 180 μM of IPdR (or its analogs) and approximately 0.01 mg protein of 10,000 g supernatant of tissue homogenate in a final volume of 500 μl and the incubation was at 37° C. for 10 minutes unless specified otherwise. […] The samples were reconstituted to the original aliquot volume with the HPLC mobile phase buffer and analyzed on a Alltech RP-18 column. IPdR, IUdR and IU were detected at a UV absorption wavelength of 230 nm, and IPdR was also detected at a UV absorption wavelength of 335 nm. […]
To study the conversion of IPdR to IUdR by liver enzyme the metabolites of IPdR were analyzed after incubation with a supernatant of rat liver homogenate using a reverse phase HPLC technique. IPdR and IUdR could be detected at an absorption wavelength of 230 nm but only IPdR could be detected at 335 nm. […]

Xanthine oxidase [2] = settings: shown previously (Lewandowski et al. 1989); cited from earlier work
HSV-2 = settings: Lewandowski et al. 1989; cited from earlier work
mice = settings: oral, at the dosage employed; cited from earlier work
thymidine phosphorylase = settings: cited from earlier work

SMILES: O=c1ncc(I)cn1[C@H]1C[C@H](O)[C@@H](CO)O1 [IPdR, 1-(2-deoxy-β-D-ribofuranosyl)-5-(iodo)-2-pyrimidinone]
- Conversion of RPdR to RUdR (aldehyde oxidase): 11 ± 2
- conversion of IPdR to IUdR by xanthine oxidase (Xanthine oxidase [1]): failed to convert IPdR to IUdR
- conversion of IPdR by alcohol dehydrogenase (Alcohol dehydrogenase): not detected
- IPdR oxidase activity of sarcosine oxidase (Sarcosine oxidase): no IPdR oxidase activity
- conversion of IPdR to IUdR over time (rat liver homogenate; 37° C., 0, 15, 30 minutes (FIG. 1)): time dependent conversion of IPdR to IUdR
- product produced from IPdR (rat liver homogenate; IUdR): IUdR appeared to be the only product
- conversion of IPdR to IUdR by xanthine oxidase (Xanthine oxidase [2]): could not be converted to IUdR
- activity against HSV-2 in mice (HSV-2): potent activity
- toxicity to mice (mice): not toxic
- substrate for thymidine phosphorylase (thymidine phosphorylase): not substrates for thymidine phosphorylase
